# Reference: patent US20260001875A1, “AMINOPYRIMIDINYL DERIVATIVES FOR THE TREATMENT OF PARKINSON'S DISEASE” (UNIVERSITY OF DUNDEE, priority 2022, published 2026)
# Like-named read-outs stand apart in the source and are kept apart here.
# Experiments:
# [1] = molecular target: T1, LRRK2^WT (Mus musculus, UniProt Q5S006); experiment: Western blot LRRK2 degradation in WT MEFs; type: cell-based; conditions: for Dmax: read-out: Dmax on WT MEFs
# T1 construct: endogenous in cells; host or cells: primary wild-type mouse embryonic fibroblasts (MEFs)
# T1 sequence (Q5S006 whole entry): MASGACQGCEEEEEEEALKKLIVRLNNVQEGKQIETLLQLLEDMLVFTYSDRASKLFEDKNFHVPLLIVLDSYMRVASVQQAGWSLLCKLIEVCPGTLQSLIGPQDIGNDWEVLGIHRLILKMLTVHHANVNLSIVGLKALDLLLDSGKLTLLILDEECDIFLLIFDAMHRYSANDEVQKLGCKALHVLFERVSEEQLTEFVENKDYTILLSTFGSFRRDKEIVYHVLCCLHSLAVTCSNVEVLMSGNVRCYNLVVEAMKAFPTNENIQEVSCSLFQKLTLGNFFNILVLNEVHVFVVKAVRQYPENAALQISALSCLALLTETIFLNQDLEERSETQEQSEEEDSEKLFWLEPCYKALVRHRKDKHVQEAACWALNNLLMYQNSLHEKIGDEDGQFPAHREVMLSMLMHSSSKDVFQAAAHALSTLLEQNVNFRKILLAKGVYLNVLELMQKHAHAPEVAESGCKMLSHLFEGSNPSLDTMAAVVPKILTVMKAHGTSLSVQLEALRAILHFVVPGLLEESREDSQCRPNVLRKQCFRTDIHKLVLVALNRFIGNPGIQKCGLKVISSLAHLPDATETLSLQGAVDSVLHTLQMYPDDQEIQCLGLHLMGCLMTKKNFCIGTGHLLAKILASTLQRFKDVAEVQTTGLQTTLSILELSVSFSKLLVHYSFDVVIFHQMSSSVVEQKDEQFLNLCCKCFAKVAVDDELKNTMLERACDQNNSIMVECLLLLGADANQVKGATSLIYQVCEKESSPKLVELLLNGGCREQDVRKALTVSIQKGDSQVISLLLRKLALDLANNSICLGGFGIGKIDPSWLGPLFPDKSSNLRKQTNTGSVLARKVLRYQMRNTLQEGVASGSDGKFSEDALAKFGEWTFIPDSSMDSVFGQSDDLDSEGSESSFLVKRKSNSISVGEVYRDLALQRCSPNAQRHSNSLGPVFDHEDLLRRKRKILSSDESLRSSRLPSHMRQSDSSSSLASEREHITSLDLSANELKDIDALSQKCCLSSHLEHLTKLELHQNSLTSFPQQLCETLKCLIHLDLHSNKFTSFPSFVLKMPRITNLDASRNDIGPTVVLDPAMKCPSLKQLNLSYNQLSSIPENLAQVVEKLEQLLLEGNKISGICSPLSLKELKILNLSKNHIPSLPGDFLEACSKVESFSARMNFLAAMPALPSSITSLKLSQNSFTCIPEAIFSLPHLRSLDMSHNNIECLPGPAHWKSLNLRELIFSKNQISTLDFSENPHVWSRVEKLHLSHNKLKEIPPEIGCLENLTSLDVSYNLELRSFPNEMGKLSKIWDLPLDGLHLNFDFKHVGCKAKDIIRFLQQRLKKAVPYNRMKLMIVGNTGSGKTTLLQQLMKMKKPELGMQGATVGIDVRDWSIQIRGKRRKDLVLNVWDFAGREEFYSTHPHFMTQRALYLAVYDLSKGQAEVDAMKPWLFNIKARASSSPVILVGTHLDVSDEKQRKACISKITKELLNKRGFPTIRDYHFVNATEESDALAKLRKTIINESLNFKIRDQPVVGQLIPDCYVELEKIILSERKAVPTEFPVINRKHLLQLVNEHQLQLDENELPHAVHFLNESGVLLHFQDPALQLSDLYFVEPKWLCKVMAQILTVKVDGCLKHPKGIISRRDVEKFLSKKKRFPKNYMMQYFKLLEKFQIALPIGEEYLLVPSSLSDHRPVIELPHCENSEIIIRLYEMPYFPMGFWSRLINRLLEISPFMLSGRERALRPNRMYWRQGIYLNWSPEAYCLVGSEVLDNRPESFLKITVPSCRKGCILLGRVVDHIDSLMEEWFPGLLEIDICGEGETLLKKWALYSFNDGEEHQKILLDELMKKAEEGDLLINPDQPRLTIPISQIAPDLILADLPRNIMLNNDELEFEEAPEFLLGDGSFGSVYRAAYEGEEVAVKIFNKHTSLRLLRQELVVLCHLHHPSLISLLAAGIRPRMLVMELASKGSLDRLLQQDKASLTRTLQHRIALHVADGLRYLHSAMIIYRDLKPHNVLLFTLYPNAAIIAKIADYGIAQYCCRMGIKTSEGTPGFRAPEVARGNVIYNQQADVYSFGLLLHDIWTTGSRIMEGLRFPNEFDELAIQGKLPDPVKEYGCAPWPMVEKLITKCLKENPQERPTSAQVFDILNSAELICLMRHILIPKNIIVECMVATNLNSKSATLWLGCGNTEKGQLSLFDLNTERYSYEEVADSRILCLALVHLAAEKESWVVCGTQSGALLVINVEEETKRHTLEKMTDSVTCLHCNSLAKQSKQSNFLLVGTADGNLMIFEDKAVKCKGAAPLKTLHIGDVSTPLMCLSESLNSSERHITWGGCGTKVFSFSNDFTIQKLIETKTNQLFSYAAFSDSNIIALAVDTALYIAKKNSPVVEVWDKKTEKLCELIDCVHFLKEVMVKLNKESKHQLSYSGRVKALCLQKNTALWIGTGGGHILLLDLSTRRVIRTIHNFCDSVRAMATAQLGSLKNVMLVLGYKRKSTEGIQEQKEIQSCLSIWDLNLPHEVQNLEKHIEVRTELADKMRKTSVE
# Procedure: (§1) Western blot degradation assays for the LRRK2 protacs were performed with WT and PD-associated LRRK2 [G2019S] mouse embryonic fibroblasts (MEFs). The second-generation PROTACs were tested in parallel with the first generation PROTACs SD75, SD82, and SD100. The compounds were tested at 33 nM or […] concentrations for 4 hours or 24 hours, running two biological replicates per condition and achieving quantifications representative of both replicates. Analysis by quantitative immunoblotting was performed with readouts of the total LRRK2 (antibody recognizes epitope in C-terminus of protein), Rab10 pThr73 (physiological substrate) and LRRK2 pSer935 (biomarker phosphorylation site).
# (§2) Primary MEFs were generated as described in a previous study (Wiggin et al., Mol. Cell Biol. 2002 April; 22(8):2871-81.). Briefly, the uterine horn was collected from adult female mice at day E12.5 and transferred to a 10 cm tissue culture dish containing cold PBS. Two forceps were used to tear the yolk sacs to isolate each embryo. Forceps were cleaned thoroughly with 70% ethanol between each embryo isolation. The embryos were culled, and a tissue piece was collected in a PCR tube for genotyping. The red tissue of the embryo, which grows to become the heart and liver, was removed. The remainder of the embryo was minced with a scalpel blade and incubated with 7.5 ml trypsin-EDTA solution for 10 minutes in a 37° C. tissue culture CO2 incubator. The dish was removed from the incubator and checked under a light microscope for single cells. 7.5 ml complete media was added to the trypsinised cells, and the cell suspension was transferred to a 15 ml Falcon tube, centrifuged at 1200 rpm for 5 minutes at room temperature. The trypsin was aspirated, the cell pellet was resuspended in 5 ml fresh complete media, and the cell suspension was plated in a 60 mm tissue culture dish and incubated in a 37° C., 5% CO2 tissue culture incubator. The MEFs at this stage were considered as passage 0 and were passaged and expanded for experimental use once the genotype was confirmed by allelic sequencing and immunoblotting. MEFs were cultured in Dulbecco's modified Eagle medium (DMEM) containing 10% (v/v) fetal bovine serum (FBS), 2 mM L-glutamine, 100 U/ml penicillin, and 100 μg/ml streptomycin supplemented with 1× non-essential amino acids and 1 mM sodium pyruvate.
# Culturing and passaging of adherent cell lines were carried out using aseptic technique in CL1 or CL2 (for PBMC isolation) biological safety cabinets. All cells were incubated in a 37° C. incubator with 5% CO2. Cell lines were regularly tested for mycoplasma contamination. For western blot assay, the cells were seeded in 6-well plates. After treating with testing compounds at indicated concentrations and time period, the media was removed and the cells were washed with PBS and lysed in 100 μl ice-cold complete lysis buffer containing 50 mM Tris-HCl pH 7.4, 1 mM EGTA, 10 mM 2-glycerophosphate, 50 mM sodium fluoride, 5 mM sodium pyrophosphate, 270 mM sucrose, supplemented with 1 μg/ml microcystin-LR, 1 mM sodium orthovanadate, complete EDTA-free protease inhibitor cocktail (Roche) and 1% (v/v) Triton X-100. The cells were immediately placed on ice and were scraped and collected into 1.5 ml Eppendorf tubes. Cell lysates were incubated on ice for 10 minutes prior to centrifugation at 15,000 g at 4° C. for 15 minutes. The cell pellet was discarded, and supernatant was collected for analysis by quantitative immunoblotting. For long term storage, the supernatant was flash frozen and stored at −80° C. Protein concentrations of cell lysates were determined using the Bradford assay.
# Cell lysates containing a quarter of a volume of 4× NuPAGE LDS sample buffer (NP0007) supplemented with 5% β-mercaptoethanol, were heated at 95° C. for 5 minutes. […]
# [2] = molecular target: T2, LRRK2^G2019S (Mus musculus, UniProt Q5S006, G2019S); experiment: Western blot LRRK2 degradation in LRRK2^G2019S MEFs; type: cell-based; conditions: for Dmax: read-out: Dmax on G2019S MEFs
# T2 construct: endogenous in cells; host or cells: LRRK2[G2019S] mouse embryonic fibroblasts (MEFs)
# T2 sequence (Q5S006 whole entry G2019S): as the sequence (Q5S006 whole entry) above, with G2019S counted along it
# Procedure: as §1, with “The” for “Western blot degradation assays for the LRRK2 protacs were performed with WT and PD-associated LRRK2 [G2019S] mouse embryonic fibroblasts (MEFs). The”
# as §2
# Culturing and passaging of adherent cell lines were carried out using aseptic technique in CL1 or CL2 (for PBMC isolation) biological safety cabinets. All cells were incubated in a 37° C. incubator with 5% CO2. Cell lines were regularly tested for mycoplasma contamination. For western blot assay, the cells were seeded in 6-well plates. […] The cells were immediately placed on ice and were scraped and collected into 1.5 ml Eppendorf tubes. Cell lysates were incubated on ice for 10 minutes prior to centrifugation at 15,000 g at 4° C. for 15 minutes. The cell pellet was discarded, and supernatant was collected for analysis by quantitative immunoblotting. For long term storage, the supernatant was flash frozen and stored at −80° C. Protein concentrations of cell lysates were determined using the Bradford assay.
# Cell lysates containing a quarter of a volume of 4× NuPAGE LDS sample buffer (NP0007) supplemented with 5% β-mercaptoethanol, were heated at 95° C. for 5 minutes. 15 to 20 μg of samples were loaded onto pre-cast 4-12% Bis-Tris midi 20W or 26W gels (Thermofisher Scientific®, Cat #WG1402BOX or WG1403BOX) and resolved at 130 V for 2 hours with NuPAGE MOPS SDS running buffer (Thermofisher Scientific® Cat #NP0001-02). Proteins were electrophoretically transferred onto a 0.45 μm nitrocellulose membrane (GE Healthcare, Amersham Protran® Supported 0.45 mm NC) at 90 V for 90 min on ice in transfer buffer (48 mM Tris base and 39 mM glycine supplemented with 20% methanol). The transferred membrane was blocked with 5% (w/v) skim milk powder dissolved in tris-buffered saline with tween (TBS-T) (50 mM Tris base, 150 mM sodium chloride (NaCl), 0.1% (v/v) Tween-20) at room temperature for 1 hour.
# [3] = tested on: Rab10 pThr73; experiment: Rab10 Thr73 dephosphorylation (immunoblot) in WT MEFs; type: cell-based, mouse; conditions: Mus musculus; for inhibition at 1 µM / inhibition at 0.033 µM: read-out: pRab10 inhibited in WT MEFs; for EC50: dose response, 4 h treatment, read-out: WT MEFs pRab10-dephosphrylation EC50
# Summary of the method: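 Wild-type mouse embryonic fibroblasts in 6-well plates were treated with LRRK2 PROTACs, with two biological replicates per condition. Cells were washed in PBS and lysed on ice in buffer containing phosphatase and protease inhibitors plus 1% Triton X-100, then clarified at 15,000 g. Rab10 Thr73 phosphorylation was measured by quantitative immunoblotting of 15 to 20 μg protein on 4-12% Bis-Tris gels.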
# [4] = tested on: Rab10 pThr73; experiment: Rab10 Thr73 dephosphorylation (immunoblot) in LRRK2^G2019S MEFs; type: cell-based, mouse; conditions: Mus musculus; for inhibition at 1 µM: read-out: pRab10 inhibited in LRRK2^G2019S MEFs; for EC50: dose response, 4 h treatment, read-out: G2019S MEFs-pRab10-dephosphorylation EC50
# [5] = tested on: Rab10 pThr73; experiment: as above; type: cell-based; conditions: Mus musculus, read-out: pRab10 inhibited in LRRK2^G2019S MEFs
SMILES,"DC50 ([1]; dose response, 4 h treatment)","Dmax ([1]; dose response, 4 h treatment)","DC50 ([2]; dose response, 4 h treatment)","Dmax ([2]; dose response, 4 h treatment)",inhibition at 1 µM ([3]; 1 μM/4 h treatment),EC50 [3],inhibition at 1 µM ([4]; 1 μM/4 h treatment),EC50 [4],inhibition at 0.033 µM ([3]; 33 nM/4 h treatment),inhibition at 0.033 µM ([3]; 33 nM/24 h treatment),inhibition at 1 µM ([3]; 1 μM/24 h treatment),inhibition at 0.033 µM ([5]; 33 nM/4 h treatment),inhibition at 0.033 µM ([5]; 33 nM/24 h treatment),inhibition at 1 µM ([4]; 1 μM/24 h treatment),Dmax [1],Dmax [2]
"CNc1nc(Nc2ccc(C(=O)N3CCN(C[C@H]4CO[C@H](CSC(C)(C)[C@@H](NC(=O)C5(F)CC5)C(=O)N5C[C@H](O)C[C@H]5C(=O)NCc5ccc(-c6scnc6C)cc5)CO4)CC3)cc2OC)ncc1Cl [XL02098, (2S,4R)-1-((S)-3-((((2S,5S)-5-((4-(4-((5-chloro-4-(methylamino)pyrimidin-2-yl)amino)-3-methoxybenzoyl)piperazin-1-yl)methyl)-1,4-dioxan-2-yl)methyl)thio)-2-(1-fluorocyclopropane-1-carboxamido)-3-methylbutanoyl)-4-hydroxy-N-(4-(4-methylthiazol-5-yl)benzyl)pyrrolidine-2-carboxamide]",50 nM,59%,45 nM,81%,75 to 90%,282 nM,80 to 100%,157 nM,,,,,,,,
"CNc1nc(Nc2ccc(C(=O)N3CCN(C[C@H]4CC[C@@H](CSC(C)(C)[C@H](NC(=O)C5(F)CC5)C(=O)N5C[C@H](O)CC5C(=O)NCc5ccc(-c6scnc6C)cc5C)CC4)CC3)cc2OC)ncc1Cl (stereo partly drawn) [XL02059, (2S,4R)-1-((R)-3-((((1s,4S)-4-((4-(4-((5-chloro-4-(methylamino)pyrimidin-2-yl)amino)-3-methoxybenzoyl)piperazin-1-yl)methyl)cyclohexyl)methyl)thio)-2-(1-fluorocyclopropane-1-carboxamido)-3-methylbutanoyl)-4-hydroxy-N-(2-methyl-4-(4-methylthiazol-5-yl)benzyl)pyrrolidine-2-carboxamide]",,77.5%,,76%,80 to 100%,227 nM,10 to 100%,55 nM,0 to 70%,0 to 80%,80 to 100%,0 to 90%,30 to 90%,80 to 100%,,
"CNc1nc(Nc2ccc(C(=O)N3CCN(C[C@H]4CC[C@H](CSC(C)(C)[C@H](NC(=O)C5(F)CC5)C(=O)N5C[C@H](O)CC5C(=O)NCc5ccc(-c6scnc6C)cc5C)CC4)CC3)cc2OC)ncc1Cl (stereo partly drawn) [XL02048, (2S,4R)-1-((R)-3-((((1R,4R)-4-((4-(4-((5-chloro-4-(methylamino)pyrimidin-2-yl)amino)-3-methoxybenzoyl)piperazin-1-yl)methyl)cyclohexyl)methyl)thio)-2-(1-fluorocyclopropane-1-carboxamido)-3-methylbutanoyl)-4-hydroxy-N-(2-methyl-4-(4-methylthiazol-5-yl)benzyl)pyrrolidine-2-carboxamide]",46 nM,81.5%,23 nM,83.5%,80 to 100%,72 nM,10 to 100%,53 nM,0 to 70%,0 to 80%,80 to 100%,0 to 90%,30 to 90%,80 to 100%,,
"CNc1nc(Nc2ccc(C(=O)N3CCN(C(=O)[C@H]4CC[C@H](CSC(C)(C)[C@H](NC(=O)C5(F)CC5)C(=O)N5C[C@H](O)CC5C(=O)NCc5ccc(-c6scnc6C)cc5)CC4)CC3)cc2OC)ncc1Cl (stereo partly drawn) [XL02068, (2S,4R)-1-((R)-3-((((1R,4R)-4-(4-(4-((5-chloro-4-(methylamino)pyrimidin-2-yl)amino)-3-methoxybenzoyl)piperazine-1-carbonyl)cyclohexyl)methyl)thio)-2-(1-fluorocyclopropane-1-carboxamido)-3-methylbutanoyl)-4-hydroxy-N-(4-(4-methylthiazol-5-yl)benzyl)pyrrolidine-2-carboxamide]",93 nM,,103 nM,,80 to 100%,272 nM,10 to 100%,150 nM,0 to 70%,0 to 80%,80 to 100%,0 to 90%,30 to 90%,80 to 100%,89%,87%
